Patent publication US20240400584A1, “COMPOUNDS AND METHODS FOR MODULATING SPLICING” (REMIX THERAPEUTICS INC., priority 2021, published 2024)

Experiments:
MYB = test: Gene panel canonical junction qPCR assay, MYB CJ mRNA (Table 7); format: cell-based; settings: Homo sapiens, read-out: MYB CJ mRNA decrease IC50
In short: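 IC50 values reflect compound concentration giving 50% reduction in canonical exon–exon junction mRNA. Cell lysates from A673 or K562 treatments were reverse-transcribed and probed by junction-spanning qPCR, normalized to a housekeeper and vehicle, then fitted to a 4-parameter logistic equation.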

[1] = test system: HiBit-tagged Target C in K562 cells; test: HiBiT protein abundance assay, Target C; format: cell-based, human; settings: HiBiT-modified K562 cells, 24 hours, luminescence
Method: (§1) Compounds described herein were used to screen for effects on quantitative protein abundance using a HiBit assay system (Promega). Quantitative protein abundance was determined by measuring the protein levels of HiBit-tagged protein targets expressed in cell culture via luminescence using the Nano-Glo HiBiT Lytic Detection System, which uses a split complementation assay format to reconstitute NanoBiT enzyme to generate a luminescent signal. A protein abundance assay was developed such that endogenous protein targets could be modified with the HiBiT peptide tag and their abundance could be assessed after compound treatment. Briefly, K562 cell lines containing a HiBiT-modification were treated with various compounds described herein (e.g., compounds of Formulas (I)). After treatment for 24 hours, the protein abundance of a specific target was determined by measuring luminescence.
(§2) Cells were maintained in IMDM with 10% FBS. Before the assay, cells were diluted with […] growth media (IMDM+[…] media) and were seeded in a 384-well plate at a density of 10000 cells/well (for each cell line listed in Table 8). Each compound was prepared as a 10-point 3-fold serial dilution in DMSO with the top dose at a final concentration of 10 μM in the well. Unmodified K562 cells were added at the previously specified density with DMSO to serve as an assay baseline and positive control (PC) and DMSO only with the respective modified cell lines was added to the negative control (NC) columns. Final DMSO concentration was kept at or below 0.25% o. Treated cell plates were placed in an incubator at 37° C. with […] for 24 hours. After 24 hours, 25 μL of Complete HiBit Lytic reagent was added to each well at room temperature (e.g. one plate requiring 10 mL Lytic Buffer, 100 μL LgBiT Protein, 200 μL Lytic Substrate), shaken for 5 minutes at 600 RPM, then left to sit for 10 minutes for signal to stabilize before reading on a Spark Cyto plate reader (Tecan) with a 500 ms measurement time.
(§3) To determine compound effects on protein abundance of each target in Table 9, the percent response for each respective cell line was calculated at each compound concentration as follows:
(§4) For the normalized response at each concentration, a four-parameter logistical regression was fit to the data and the response was interpolated at the […] to determine a concentration for protein abundance at 50% o (IC50) the untreated control.

[2] = test system: HiBit-tagged HTT in K562 cells; test: HiBiT protein abundance assay, HTT; format: cell-based, human; settings: HiBiT-modified K562 cells, 24 hours, luminescence
Method: as §1, §2, §3, §4

[3] = test system: HiBit-tagged MYB in K562 cells; test: HiBiT protein abundance assay, MYB; format: cell-based, human; settings: HiBiT-modified K562 cells, 24 hours, luminescence
Method: as §1, §2, §3, §4

Structure (SMILES) | IC50 (MYB) [nM] | IC50 [1] [nM] | IC50 [2] [nM] | IC50 [3] [nM]
C[C@@H]1C[C@H](N(C)c2ccc3c(c2)OCc2cc(-c4cn[nH]c4)ccc2-3)CCN1 [Compound 101] | > 10000 | 1000 to 10000 | 1000 to 10000 | 1000 to 10000
C[C@H]1C[C@H](N(C)c2ccc3c(c2)OCc2cc(-c4cn[nH]c4)ccc2-3)CCN1 [Compound 102] | > 10000 | 1000 to 10000 | 1000 to 10000 | 1000 to 10000
CN(c1ccc2c(c1)OCc1cc(-c3cn[nH]c3)ccc1-2)[C@@H]1C[C@H]2CC[C@@H](C1)N2 [Compound 104] | > 10000 | 1000 to 10000 | 1000 to 10000 | 1000 to 10000
CN(c1ccc2c(c1)OCc1cc(-n3cccn3)ccc1-2)[C@@H]1C[C@H]2CC[C@@H](C1)N2 [Compound 105] | > 10000 | 1000 to 10000 | 1000 to 10000 | 1000 to 10000
CN(c1ccc2c(n1)OCc1cc(-c3cn[nH]c3)ccc1-2)[C@@H]1C[C@H]2CC[C@@H](C1)N2 [Compound 108] | 100 to 1000 | < 100 | < 100 | < 100
CN(c1ccc2c(c1)CCOc1cc(-n3cccn3)ccc1-2)[C@@H]1C[C@H]2CC[C@@H](C1)N2 [Compound 113] | > 10000 | > 10000 | > 10000 | 1000 to 10000
CN(c1ccc2c(n1)OCc1cc(-c3cn[nH]c3)ccc1-2)C1CCNCC1 [Compound 116] | 1000 to 10000 | 1000 to 10000 | 100 to 1000 | 1000 to 10000
CN(c1ccc2c(c1)COc1cc(-n3cccn3)ccc1-2)C1CC(C)(C)NC(C)(C)C1 [Compound 117] | 1000 to 10000 | 1000 to 10000 | 1000 to 10000 | 1000 to 10000
CC1(C)CC(Nc2ccc3c(c2)COc2cc(-n4cccn4)ccc2-3)CC(C)(C)N1 [Compound 118] | > 10000 | 1000 to 10000 | 1000 to 10000 | 1000 to 10000
CN(c1ccc2c(n1)COc1cc(-c3cn[nH]c3)ccc1-2)[C@@H]1C[C@H]2CC[C@@H](C1)N2 [Compound 121] | 1000 to 10000 | 100 to 1000 | < 100 | 1000 to 10000
CN(c1ccc2c(n1)COc1cc(-n3cccn3)ccc1-2)[C@@H]1C[C@H]2CC[C@@H](C1)N2 [Compound 124] | 1000 to 10000 | 1000 to 10000 | 1000 to 10000 | 1000 to 10000
CN(c1ccc2c(n1)COc1cc(-n3cccn3)ccc1-2)C1CC(C)(C)NC(C)(C)C1 [Compound 125] | > 10000 | 1000 to 10000 | 1000 to 10000 | 100 to 1000
CN(c1ccc2c(n1)CCOc1cc(-n3cccn3)ccc1-2)C1CC(C)(C)NC(C)(C)C1 [Compound 129] | > 10000 | > 10000 | > 10000 | > 10000
CC1(C)CC(Nc2ccc3c(n2)COc2cc(-n4cccn4)ccc2-3)CC(C)(C)N1 [Compound 134] | 1000 to 10000 | 1000 to 10000 | 1000 to 10000 | 1000 to 10000
CN(c1cnc2c(n1)OCc1cc(-c3cn[nH]c3)ccc1-2)C1CC(C)(C)NC(C)(C)C1 [Compound 142] | 100 to 1000 | 1000 to 10000 | 100 to 1000 | 1000 to 10000
c1cc2c(cc1-c1cn[nH]c1)COc1nc(N[C@@H]3C[C@H]4CC[C@@H](C3)N4)cnc1-2 [Compound 143] | 100 to 1000 | 100 to 1000 | 100 to 1000 | 1000 to 10000
CN(c1cnc2c(n1)OCc1cc(-c3cn[nH]c3)ccc1-2)[C@@H]1C[C@H]2CC[C@@H](C1)N2 [Compound 144] | 100 to 1000 | < 100 | < 100 | 100 to 1000
CN(c1ccc2c(n1)OCCc1cc(-c3cn[nH]c3)ccc1-2)C1CC(C)(C)NC(C)(C)C1 [Compound 145] | 1000 to 10000 | 1000 to 10000 | 1000 to 10000 | 1000 to 10000
CN(c1ccc2c(n1)OCCc1cc(-c3cn[nH]c3)ccc1-2)[C@@H]1C[C@H]2CC[C@@H](C1)N2 [Compound 146] | > 10000 | 1000 to 10000 | 1000 to 10000 | 1000 to 10000

Structure (SMILES) | IC50 (MYB) [nM] | IC50 [1] [nM] | IC50 [2] [nM] | IC50 [3] [nM]
CN(c1ccc2c(n1)OCc1cc(-c3cn[nH]c3)ccc1-2)C1CC(C)(C)NC(C)(C)C1 [Compound 147] | 1000 to 10000 | 100 to 1000 | 100 to 1000 | 100 to 1000
CN(c1ccc2c(n1)OCc1cc(-n3cccn3)ccc1-2)C1CC(C)(C)NC(C)(C)C1 [Compound 148] | 1000 to 10000 | 1000 to 10000 | 1000 to 10000 | 1000 to 10000
CN(c1ccc2c(n1)OCc1cc(-n3cccn3)ccc1-2)[C@@H]1C[C@H]2CC[C@@H](C1)N2 [Compound 149] | 100 to 1000 | 100 to 1000 | 100 to 1000 | 100 to 1000
CN(c1ccc2c(n1)OCc1cc(-n3nccn3)ccc1-2)[C@@H]1C[C@H]2CC[C@@H](C1)N2 [Compound 151] | 100 to 1000 | < 100 | < 100 | 100 to 1000
CN(c1ccc2c(n1)OCc1cc(-n3ccnn3)ccc1-2)[C@@H]1C[C@H]2CC[C@@H](C1)N2 [Compound 152] | 100 to 1000 | 100 to 1000 | < 100 | 100 to 1000
CN(c1ccc2c(n1)OCc1cc(-c3ccn(C)c(=O)c3)ccc1-2)[C@@H]1C[C@H]2CC[C@@H](C1)N2 [Compound 153] | 100 to 1000 | < 100 | < 100 | < 100
Cc1[nH]ncc1-c1ccc2c(c1)COc1nc(N(C)[C@@H]3C[C@H]4CC[C@@H](C3)N4)ccc1-2 [Compound 154] | 100 to 1000 | 100 to 1000 | < 100 | 100 to 1000
Cc1ncc(-c2ccc3c(c2)COc2nc(N(C)[C@@H]4C[C@H]5CC[C@@H](C4)N5)ccc2-3)o1 [Compound 155] | 100 to 1000 | < 100 | < 100 | 100 to 1000
COc1cc(-c2ccc3c(c2)COc2nc(N(C)[C@@H]4C[C@H]5CC[C@@H](C4)N5)ccc2-3)ccn1 [Compound 156] | 100 to 1000 | 100 to 1000 | < 100 | 100 to 1000
CN(c1ccc2c(n1)OCc1cc(-c3ccc(=O)[nH]c3)ccc1-2)[C@@H]1C[C@H]2CC[C@@H](C1)N2 [Compound 157] | 1000 to 10000 | 1000 to 10000 | 100 to 1000 | 1000 to 10000
CN(c1ccc2c(n1)OCc1cc(-c3ccc(=O)n(C)c3)ccc1-2)[C@@H]1C[C@H]2CC[C@@H](C1)N2 [Compound 158] | 100 to 1000 | 1000 to 10000 | < 100 | 100 to 1000
COc1cc(-c2ccc3c(c2)COc2nc(N(C)[C@@H]4C[C@H]5CC[C@@H](C4)N5)ccc2-3)cnn1 [Compound 159] | < 100 | < 100 | < 100 | < 100
CN(c1ccc2c(n1)OCc1cc(-c3cnn(C)c(=O)c3)ccc1-2)[C@@H]1C[C@H]2CC[C@@H](C1)N2 [Compound 160] | 100 to 1000 | < 100 | < 100 | 100 to 1000
CN(c1ccc2c(n1)OCc1cc(-c3cnc(=O)[nH]c3)ccc1-2)[C@@H]1C[C@H]2CC[C@@H](C1)N2 [Compound 161] | > 10000 | > 10000 | > 10000 | > 10000
CN(c1ccc2c(n1)OCc1cc(-c3cc(=O)n(C)cn3)ccc1-2)[C@@H]1C[C@H]2CC[C@@H](C1)N2 [Compound 162] | 100 to 1000 | < 100 | < 100 | 100 to 1000
CN(c1ccc2c(n1)OCc1cc(-n3ccnc3)ccc1-2)[C@@H]1C[C@H]2CC[C@@H](C1)N2 [Compound 163] | 100 to 1000 | < 100 | < 100 | < 100
Cc1cn(-c2ccc3c(c2)COc2nc(N(C)[C@@H]4C[C@H]5CC[C@@H](C4)N5)ccc2-3)cn1 [Compound 164] | 100 to 1000 | < 100 | < 100 | 100 to 1000
CC1(C)CC(Nc2ccc3c(n2)OCc2cc(-n4cccn4)ccc2-3)CC(C)(C)N1 [Compound 165] | 1000 to 10000 | 100 to 1000 | < 100 | 100 to 1000
